Assay results taken from publication PMC7743948, “D-LL-31 enhances biofilm-eradicating effect of currently used antibiotics for chronic rhinosinusitis and its immunomodulatory activity on human lung epithelial cells” (PLoS ONE, 2020).
Several values for one entry are separate records, joined by “and”; a condition that tells them apart may be missing. Identical values can stand only once. Like-named read-outs stand apart in the source and are kept apart here. Ends that are not written are not given here.

Legend:
S. epidermidis [1] = experiment: Disc antimicrobial susceptibility test (BD BBL Sensi-Disc); assay type: cell-based, Staphylococcus epidermidis; set-up: key: Susceptible; Intermediate; Resistant; details: 24 h
Protocol: (§1) Supplementary file pone.0243315.s001.docx: S1 Table Antimicrobial susceptibility test results of reference strain and representative bacteria used from CRS patients. Bacterial suspensions were incubated with antibiotics for 24 h and the results were interpreted according to BD BBL™ Sensi-Disc™ antimicrobial susceptibility test discs. (DOCX) Click here for additional data file.
(§2) Antibiotics susceptibility testing was performed using BD BBL™ Sensi-Disc™ antimicrobial susceptibility test discs (Becton, Dickinson and Company, Franklin Lakes, NJ) and the results were interpreted according to the manufacturer's instructions.

K. pneumoniae [2] = experiment: as above; assay type: cell-based, Klebsiella pneumoniae; set-up: key: Susceptible; Intermediate; Resistant; details: 24 h
Protocol: as §1, §2

K. pneumoniae biofilm [3] = experiment: Checkerboard synergy of D-LL-31 with antibiotics on biofilm; assay type: cell-based, Klebsiella pneumoniae; details: Klebsiella pneumoniae, read-out: Antimicrobial agent in concentration of combination
Protocol: (§3) Bacterial viability in each interaction was determined using the plate count technique. The fractional inhibitory concentration index (FICI) values were calculated and interpreted in terms of synergism/antagonism as previously described. Each experiment was performed independently three times in duplicate.

[4] = system: all strains (bacteria isolated from CRS patients); experiment: Broth microdilution susceptibility, statement for all strains; assay type: cell-based; details: planktonic form
Protocol: (§4) MICs and MBCs of conventional antibiotics were determined using a broth microdilution technique. […] Only P. aeruginosa was additionally tested for susceptibility to TOB (Sigma-Aldrich) (0.03–52 μM or 0.01–25 μg/ml). Bacterial suspensions (5 x 10^5 CFU/ml) were added to the microtiter plates, which were then incubated at 37 °C for 24 h. Antibiotic-free culture was used as a control. After incubation, MIC values were observed according to the guidelines of the Clinical & Laboratory Standards Institute (CLSI). The results were confirmed using a microplate reader at OD620 (Sunrise™, TECAN, Australia). The plate count technique was further used to determine the MBC values on Mueller Hinton agar (MHA) (Himedia®). Each experiment was performed independently three times in triplicate.

S. epidermidis biofilm [5] = experiment: Checkerboard synergy of D-LL-31 with antibiotics on biofilm; assay type: cell-based, Staphylococcus epidermidis; details: Staphylococcus epidermidis, read-out: Antimicrobial agent in concentration of combination
Protocol: as §3

S. epidermidis [6] = experiment: Broth microdilution MIC/MBC of conventional antibiotics, planktonic form; assay type: cell-based, Staphylococcus epidermidis; details: MHB, 5 x 10^5 CFU/ml, 37 °C, 24 h, CLSI
Protocol: as §4, with “After incubation, MIC values were observed according to the guidelines of the Clinical & Laboratory Standards Institute (CLSI).” left out

K. pneumoniae biofilm [7] = experiment: microbe, parasite or virus in culture
Protocol: (§5) The effects of both conventional antibiotics and AMPs against bacteria under biofilm-stimulating condition were determined using a transferable solid phase (TSP) pin lid, which resembles the ‘Calgary’ biofilm device as previously described with some modifications. Each strain (10^7 CFU/ml) was added to sterile 96-well plates (Nunclon™), then covered by a TSP pin lid (NUNC™, Roskilde, Denmark), and further incubated at 37 °C for 24 h. […] Additionally, the effect of TOB (2–836 μM or 1–391 μg/ml) against P. aeruginosa biofilm was also investigated. Then the plates were statically incubated at 37 °C for 24 h. A well free of antimicrobial agent was used as a control. After 24 h, bacterial survival was determined using the plate count technique on NA (Himedia®). The percentage killing of each antimicrobial agent was calculated using the formula [1 − (CFU sample/CFU control)] × 100% [15, 19]. […] Each experiment was performed independently three times in duplicate.

S. epidermidis biofilm [8] = experiment: microbe, parasite or virus in culture
Protocol: as §5

P. aeruginosa biofilm [9] = experiment: microbe, parasite or virus in culture
Protocol: as §5

P. aeruginosa biofilm [10] = experiment: Checkerboard synergy of D-LL-31 with antibiotics on biofilm; assay type: cell-based, Pseudomonas aeruginosa
Protocol: as §3

[11] = system: S. epidermidis biofilm matrix; experiment: Biofilm matrix reduction (AAA-model, CLSM, COMSTAT biomass); assay type: cell-based, Staphylococcus epidermidis; details: AMX alone at IC50 (33092 μM), 24 h, P < 0.05
Protocol: Briefly, 1.5 ml of each overnight culture (10^8 CFU/ml) was added to a 24-well tissue culture plate (Nunclon™). The plate was covered with a sterile stainless-steel lid containing glass coverslips and aerobically incubated at 37°C for 24 h. […] All tested conditions were incubated at 37°C for 24 h. A well free of antimicrobial agent was used as a control. Following incubation, biofilms were fixed with 2.5% glutaraldehyde (Sigma-Aldrich) at 25°C for 3 h. The fixed bacterial biofilms on glass coverslips were stained with 50 μg/ml Alexa Fluor® 488 (Invitrogen, Carlsbad, CA) for 30 min. This stain reacts with exopolysaccharide matrixes of the biofilm. The glass coverslips were then mounted with 80% glycerol and the stained cells were photographed using a confocal laser-scanning microscope (CLSM) (TCS SP8-Leica Microsystems, Wetzlar, Germany). […] Each experiment was performed independently three times in duplicate.

K. pneumoniae [12] = experiment: Broth microdilution MIC/MBC of conventional antibiotics, planktonic form; assay type: cell-based, Klebsiella pneumoniae; details: for MBC: broth microdilution then plate count on MHA; for MIC: broth microdilution, MHB, 5 x 10^5 CFU/ml, 37 °C, 24 h, CLSI
Protocol: as §4, with “After incubation, MIC values were observed according to the guidelines of the Clinical & Laboratory Standards Institute (CLSI).” left out

P. aeruginosa [13] = experiment: Disc antimicrobial susceptibility test (BD BBL Sensi-Disc); assay type: cell-based, Pseudomonas aeruginosa; set-up: key: Susceptible; Intermediate; Resistant; details: 24 h
Protocol: as §1, §2

P. aeruginosa ATCC27853 = experiment: as above; assay type: cell-based, Pseudomonas aeruginosa; set-up: key: Susceptible; Intermediate; Resistant; details: 24 h
Protocol: as §1, §2

[14] = system: reference strain P. aeruginosa ATCC 27853; experiment: Killing of planktonic bacteria (CFU count); assay type: cell-based, Pseudomonas aeruginosa
Protocol: (§6) A bacterial suspension without peptide served as a control. The samples were then serially diluted and cultivated on NA (Himedia®) and incubated for 24 h to allow colony counting. The percentage killing by each AMP was calculated using the formula [1 − (CFU sample/CFU control)] × 100% [15, 36]. Each experiment was performed independently three times in duplicate.

[15] = system: clinical isolate P. aeruginosa; experiment: Killing of planktonic bacteria (CFU count); assay type: cell-based, Pseudomonas aeruginosa; details: 1–2 h
Protocol: as §6

P. aeruginosa [16] = experiment: Broth microdilution MIC/MBC of conventional antibiotics, planktonic form; assay type: cell-based, Pseudomonas aeruginosa; details: for MBC: broth microdilution then plate count on MHA, planktonic
Protocol: as §4, with “After incubation, MIC values were observed according to the guidelines of the Clinical & Laboratory Standards Institute (CLSI).” left out

[17] = highest concentration of AMX (68418 μM or 25000 μg/ml), 24 h biofilm, 24 h
[18] = Pseudomonas aeruginosa, 24 h, read-out: IC50 value

CC1(C)S[C@@H]2[C@H](NC(=O)[C@H](N)c3ccccc3)C(=O)N2[C@H]1C(=O)O [AMP, Ampicillin]
antimicrobial susceptibility (S. epidermidis [1]): R | antimicrobial susceptibility (K. pneumoniae [2]): R

CC1(C)S[C@@H]2[C@H](NC(=O)[C@H](N)c3ccc(O)cc3)C(=O)N2[C@H]1C(=O)O [AMX, amoxicillin]
IC50 (K. pneumoniae biofilm [3]; 24 h): 495 µM | IC50 (K. pneumoniae biofilm [3]): 181 µg/mL | susceptibility in words [4]: Resistance | IC50 (S. epidermidis biofilm [5]; 24 h): 2070 µM | IC50 (S. epidermidis biofilm [5]): 756 µg/mL | MIC (S. epidermidis [6]): 1562.5 µg/mL | MIC (S. epidermidis [6]; Staphylococcus epidermidis, read-out: MIC): 4.28 mM | IC50 (K. pneumoniae biofilm [7]; Klebsiella pneumoniae, 24 h, read-out: IC50 value): 7.92 mM and 2900 µg/mL | IC50 of AMX higher than that of D-LL-31 (K. pneumoniae biofilm [7]; biofilm): ~13000 fold | killing activity (K. pneumoniae biofilm [7]; [17]): 90% | IC50 (S. epidermidis biofilm [8]; Staphylococcus epidermidis, 24 h, read-out: IC50 value): 33.1 mM and 12100 µg/mL | IC50 of AMX higher than that of D-LL-31 (S. epidermidis biofilm [8]; biofilm): ~66000 fold | killing activity (S. epidermidis biofilm [8]; [17]): 75% | IC50 (P. aeruginosa biofilm [9]; [18]): 45.2 mM and 16500 µg/mL | IC50 of AMX higher than that of D-LL-31 (P. aeruginosa biofilm [9]; biofilm): about 11000 fold | killing activity (P. aeruginosa biofilm [9]; [17]): 70% | IC50 (P. aeruginosa biofilm [10]; Pseudomonas aeruginosa, 24 h; read-out: Antimicrobial agent in concentration of combination): 2820 µM | IC50 (P. aeruginosa biofilm [10]; Pseudomonas aeruginosa; read-out: Antimicrobial agent in concentration of combination): 1030 µg/mL | effect on biofilm biomass [11]: significant effect | MBC (K. pneumoniae [12]; Klebsiella pneumoniae, read-out: MBC): 8.55 mM | MIC (K. pneumoniae [12]; Klebsiella pneumoniae, three independent experiments in triplicate, read-out: MIC): 4.28 mM | MBC (K. pneumoniae [12]): 3125 µg/mL | MIC (K. pneumoniae [12]): 1562.5 µg/mL

O=C(N[C@H](CO)[C@H](O)c1ccc([N+](=O)[O-])cc1)C(Cl)Cl [CHL, Chloramphenicol]
antimicrobial susceptibility (S. epidermidis [1]): S | antimicrobial susceptibility (K. pneumoniae [2]): S | antimicrobial susceptibility (P. aeruginosa [13]): R | antimicrobial susceptibility (P. aeruginosa ATCC27853): S

CO/N=C(\C(=O)N[C@@H]1C(=O)N2C(C(=O)O)=C(CSc3nc(=O)c(=O)[nH]n3C)CS[C@H]12)c1csc(N)n1 [CRO, Ceftriaxone]
antimicrobial susceptibility (S. epidermidis [1]): S | antimicrobial susceptibility (K. pneumoniae [2]): S | antimicrobial susceptibility (P. aeruginosa [13]): R | antimicrobial susceptibility (P. aeruginosa ATCC27853): S

CC[C@H]1OC(=O)[C@H](C)[C@@H](O[C@H]2C[C@@](C)(OC)[C@@H](O)[C@H](C)O2)[C@H](C)[C@@H](O[C@@H]2O[C@H](C)C[C@H](N(C)C)[C@H]2O)[C@](C)(O)C[C@@H](C)C(=O)[C@H](C)[C@@H](O)[C@]1(C)O [ERY, Erythromycin]
antimicrobial susceptibility (S. epidermidis [1]): R

CNC(C)C1CCC(N)C(OC2C(N)CC(N)C(OC3OCC(C)(O)C(NC)C3O)C2O)O1 (centres unmarked) [GEN, Gentamicin]
antimicrobial susceptibility (S. epidermidis [1]): S | antimicrobial susceptibility (K. pneumoniae [2]): I | antimicrobial susceptibility (P. aeruginosa [13]): I | antimicrobial susceptibility (P. aeruginosa ATCC27853): S

NC[C@H]1O[C@H](O[C@H]2[C@H](O)[C@@H](O[C@H]3O[C@H](CO)[C@@H](O)[C@H](N)[C@H]3O)[C@H](N)C[C@@H]2N)[C@H](O)[C@@H](O)[C@@H]1O [KAN, Kanamycin]
antimicrobial susceptibility (S. epidermidis [1]): S | antimicrobial susceptibility (K. pneumoniae [2]): S

Cc1onc(-c2ccccc2)c1C(=O)N[C@@H]1C(=O)N2[C@@H]1SC(C)(C)[C@@H]2C(=O)O [OXA, Oxacillin]
antimicrobial susceptibility (S. epidermidis [1]): S

CN(C)[C@@H]1C(O)=C(C(N)=O)C(=O)[C@@]2(O)C(O)=C3C(=O)c4c(O)cccc4[C@@](C)(O)[C@H]3C[C@@H]12 [TET, Tetracycline]
antimicrobial susceptibility (S. epidermidis [1]): S | antimicrobial susceptibility (K. pneumoniae [2]): I | antimicrobial susceptibility (P. aeruginosa [13]): R | antimicrobial susceptibility (P. aeruginosa ATCC27853): S

NC[C@H]1O[C@H](O[C@H]2[C@H](O)[C@@H](O[C@H]3O[C@H](CO)[C@@H](O)[C@H](N)[C@H]3O)[C@H](N)C[C@@H]2N)[C@H](N)C[C@@H]1O [TOB, tobramycin]
antimicrobial susceptibility (S. epidermidis [1]): S | killing effect ([14]; 1 μM, 1 h): ≥ 98% | killing of bacterial cells, in words ([14]; 5 and 10 μM, within 1 h): killed all bacterial cells | killing effect ([15]; 1 and 5 μM): ≥ 92% | concentration required to kill all bacterial cells ([15]; planktonic): 10 µM | sensitivity of biofilm, in words (P. aeruginosa biofilm [9]; 24 h biofilm, 24 h): sensitive | IC50 (P. aeruginosa biofilm [9]; [18]): 4 µM and 2 µg/mL | antimicrobial susceptibility (K. pneumoniae [2]): S | Fold decrease of IC50 values (P. aeruginosa biofilm [10]; D-LL-31 combined with TOB; IC50 alone compared with concentration of combination): 16 fold | IC50 (P. aeruginosa biofilm [10]; Pseudomonas aeruginosa, 24 h, read-out: Antimicrobial agent in concentration of combination): 0.2 µM | IC50 (P. aeruginosa biofilm [10]; Pseudomonas aeruginosa, read-out: Antimicrobial agent in concentration of combination): 0.1 µg/mL | MBC (P. aeruginosa [16]; Pseudomonas aeruginosa, read-out: MBC): 0.001 mM | MBC (P. aeruginosa [16]): 0.4 µg/mL | susceptibility in words (P. aeruginosa [16]; planktonic form): susceptible | antimicrobial susceptibility (P. aeruginosa [13]): S | antimicrobial susceptibility (P. aeruginosa ATCC27853): S

LLGDFFRKSKEKIGKEFKRIVQRIKDFLRNL [LL-31]
IC50 (K. pneumoniae biofilm [7]; biofilm, 24 h): 0.7 µM | IC50 (S. epidermidis biofilm [8]; biofilm, 24 h): 1.8 µM | IC50 (P. aeruginosa biofilm [9]; biofilm, 24 h): 5.3 µM

Penicillin
antimicrobial susceptibility (S. epidermidis [1]): S
